Measurements as given in patent US20080171706A1, “Anti-Adhesive Compounds to Prevent and Treat Bacterial Infections” (priority 2004, published 2008).
pKd: −log10 of the molar value. Like-named read-outs stand apart in the source and are kept apart here.

How the values were obtained:
Assay in all cases: biochemical
FimHtrJ96 = target: T1, FimHtrJ96 (Escherichia coli, UniProt P08191); type: binding, uropathogenic E. coli strain J96; details: for ΔG° J96: Table 3, calculated from KD
T1 construct: coding for the lectin domain of FimH (residues 1-158) with a C-terminal 6-histidine tag; made in house; host or cells: E. coli HB101 (lacking the fim operon), periplasmic extract, plasmid pPKL241
Description: To measure the dissociation constant for FimH:alkyl or aryl-mannoside binding, two different binding assays were developed. The first binding assay uses [^3H]-mannose. The amount of radioactively labeled mannose bound to FimHtrJ96 was measured at six different concentrations of [^3H]-mannose, and a hyperbolic curve fitted to the resulting data (FIG. 1A). FimHtrJ96 corresponds to the carbohydrate (mannose) binding domain of FimH from the uropathogenic E. coli strain J96. The dissociation equilibrium constant was determined from this graph at the concentration of mannose […], which corresponds to occupation of half of the binding sites.
Surface Plasmon Resonance measurements were performed on a Biacore3000™. In a first experiment, the kinetic constants and maximal binding were determined for the FimH-antibody interaction. Next, a fixed concentration of FimH (close to the KD of the FimH-antibody interaction) in combination with varying concentrations of carbohydrate, were used to determine the dissociation equilibrium constant of the FimH-saccharide interaction in a competition experiment. Every measurement was repeated at least twice, including testing the variation between different protein and saccharide batches.
To eliminate the possibility of different binding strength for full length FimH and FimHtrJ96, the binding of alpha-D-mannose to FimC:FimH complex was also measured. […] The inhibition of [^3H]-mannose binding was used in a displacement assay to determine the dissociation constant for a synthetic butyl mannoside by measuring the amount of [^3H]-mannose bound to the protein in the presence of increasing amounts of the inhibitor (FIG. 1B). […] To investigate the effect of sequential addition of methyl groups to the O1 oxygen of D-mannose, a series of alkyl mannosides were synthesized and the dissociation constants determined using the [^3H]-mannose displacement assay and by surface plasmon resonance (Table 1).
Surface Plasmon Resonance measurements were performed on a Biacore3000™. The Fab fragments of a monoclonal antibody against FimH were covalently immobilised via lysines at 1000 Resonance Units (1000 pg ligand/mm^2) in flowcell Fc2 on a CM5 biasensor chip (BIAapplications Handbook, Biacore AB, Uppsala, Sweden). Immobilisation buffer was 100 mM NaAc pH 5.0 with 100 mM NaCl. The reference flowcell Fc1 was left blank.
Binding of FimH to the immobilized antibody was measured with a Biacore 3000 instrument in running buffer (phosphate buffered saline with 0.005% surfactant P20 and 3 mM EDTA), on both flowcells Fc1 and Fc2 simultaneously, at a flow rate of 30 μl/min and at 25° C. Complete dissociation of FimH was done with running buffer before starting a new binding cycle. For all measurements, the association time was 3 minutes, the dissociation time was 30 min. All binding cycles were performed in duplicate, including a zero concentration cycle of FimH (injection of running buffer).
In a first experiment, the kinetic constants, ka and kd, and the maximal binding Rmax, were determined for the FimH-antibody interaction (FimH concentrations (nM): 2000, 1000, 500, 250, 125, 62.5, 31.25, 15.625, 7.818, 3.911, 1.957, 0). All analyses were performed with the BIAeval software. A Langmuir binding isotherm with a 1:1 stoichiometry was fitted to the data, from which the kinetic constants and maximal binding were obtained.
In the next experiment, samples containing a fixed concentration of FimH (close to the KD of the FimH-antibody interaction) in combination with varying concentrations of saccharide, were used to determine the dissociation constant of the FimH-saccharide interaction in a competition experiment. First, ten-fold dilutions of the saccharide solution were used to determine the concentration range for binding of the saccharide to FimH.

FimHtrCl#4 = target: T2, FimHtrCl#4 (Escherichia coli, UniProt P08191, G94E/N91S/S99N/V48A); type: binding, E. coli UPEC (Cl#4) strain; details: for pKd: Table 3, [3H]-mannose displacement assay (mannose measured directly), read-out: KD CI#4; for ΔG° CI#4: Table 3, calculated from KD
T2 construct: coding for the lectin domain of FimH (residues 1-158) with a C-terminal 6-histidine tag; made in house; host or cells: E. coli HB101 (lacking the fim operon), periplasmic extract, plasmid pMAS146
Description: (§1) To investigate if these variations reflect differences in sugar binding at the molecular level, the dissociation constants of a series of mannosides for the FimH lectin domain from a fecal (F18) and from a UPEC (Cl#4) strain were determined. […] For comparison, binding to FimHtrJ96 was also investigated. Both F18 and Cl#4 FimH lectin domains were cloned, expressed, and purified in the same way as FimHtrJ96 (Schembri et al., 2000). These two lectin domains differ from the lectin domain of FimHJ96 by substitutions Val27Ala, Asn70Ser and Ser78Asn. In addition, FimHCl#4 differs from the other two variants by a Gly73Glu substitution. […] Five different tri-mannosides corresponding to high-mannose substructures were synthesized, and their binding to FimHtrJ96, FimHtrF18 and FimHtrCl#4 measured using our [^3H]-mannose displacement assay (Table 3). Alpha-D-mannose binding was first directly measured for each of the FimH variants.
(§2) [^3H]alpha-D-mannose was obtained from Amersham. […] Syntheses of tri-mannosides was as reported earlier by Oscarson and co-workers (1993). Weighed amounts of tri-mannosides were dissolved in double distilled water to give stock solutions of 0.87 M man-(1,2)-man-(1,2)-man, 0.25 M man-(1,2)-man-(1,3)-man, 0.27 M man-(1,2)-man-(1,6)-man, 0.30 M man-(1,3)-man-(1,6)-man, 0.13 M man-(1,6)-man-(1,6)-man. Similarly, alkyl mannosides were dissolved in double distilled water to give stock solutions of 100 mM methyl mannoside, 59.8 mM ethyl mannoside, 45.9 mM propyl mannoside, 51.9 mM butyl mannoside, 17.3 mM pentyl mannoside, 20.8 mM hexyl mannoside, 15.3 mM heptyl mannoside, 15.2 mM octyl mannoside. pNPalphaMan and MeUmbalphaMan (6 mg each) were dissolved in 20 μl DMSO and diluted to 20 mM using double distilled water. Binding experiments were performed using six different concentrations of [^3H]-alpha-D-mannose (final concentrations 43.5 μM, 29.0 μM, 19.3 μM, 12.9 μM, 8.6 μM, 5.7 μM). FimHtrJ96 obtained by growing bacteria in minimal medium was used in all binding experiments. 180 μl protein at a concentration of about 500 nM was mixed with 20 μl of the radioactive ligand, and incubated at 37° C. for 20 min. To separate free ligand from bound, the mixture was rapidly filtrated through a Protran BA 85 Cellulose-nitrate filter (Schleicher & Schuell, Dassel, Germany), and washed once with 1 ml of ice-cold 1× PBS (phosphate buffered saline). Filter-bound radioactivity was measured by scintillation spectrometry within 24 hours. The displacement experiments were performed using six different concentrations (final concentrations in the range 0.0˜43.5 μM) of the inhibitor, in the presence of 43.5 μM [^3H]-alpha-D-mannose. 20 μl radioactive ligand, 20 μl inhibitor at decreasing concentrations, and 160 μl protein (500 nM) were mixed, and the experiments performed as above. All experiments were performed in duplicates. For determination of KD for α-D-mannose, a hyperbolic curve (y=P1x/(P2+x), where P2=KD) was fitted to the data. For the displacement experiments, the curve y=P1/(P2+x), where P2 is the concentration of the inhibitor displacing 50% of the labelled ligand, [I]0.5 was used instead. To calculate the inhibitor dissociation constant (KI) the Cheng & Prusoff equation (KI=[I]0.5/([L]/KL+1); KL is the constant of dissociation for the ligand) (Cheng and Prusoff, 1973), was used when both the concentration of the radioactive ligand (L) and the displacing agent (I) are in excess over the protein (LT>>PT;IT>>PT, T indicates total concentration). […] A plot of IT/((1−Y)*(LT/KL)−Y) against 1/Y gives a straight line with a slope of KI.

FimHtrF18 = target: T3, FimHtrF18 (Escherichia coli, UniProt P08191, N91S/S99N/V48A); type: binding, E. coli fecal (F18) strain; details: for pKd: Table 3, [3H]-mannose displacement assay (mannose measured directly), read-out: KD F18; for ΔG° F18: Table 3, calculated from KD
T3 construct: coding for the lectin domain of FimH (residues 1-158) with a C-terminal 6-histidine tag; made in house; host or cells: E. coli HB101 (lacking the fim operon), periplasmic extract, plasmid pPKL316
Description: as §1, §2

[1] = displacement assay, FimHtrJ96, read-out: KD
[2] = quoted in b67 for comparison with docking, method not given, read-out: experimentally determined dissociation constant Kd
[3] = Table 3, [3H]-mannose displacement assay (mannose measured directly), read-out: KD J96

T1 sequence (P08191 22-179): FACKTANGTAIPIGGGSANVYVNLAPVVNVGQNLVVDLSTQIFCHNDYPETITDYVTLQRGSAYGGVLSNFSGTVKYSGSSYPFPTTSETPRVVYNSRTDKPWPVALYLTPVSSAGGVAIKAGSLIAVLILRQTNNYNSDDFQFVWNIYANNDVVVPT
T3 sequence (P08191 22-179 V48A/N91S/S99N): as the sequence (P08191 22-179) above, with V27A, N70S, S78N counted along it
T2 sequence (P08191 22-179 V48A/N91S/G94E/S99N): as the sequence (P08191 22-179) above, with V27A, N70S, G73E, S78N counted along it

OC[C@H]1O[C@H](O)C[C@@H](O)[C@@H]1O [2-deoxy α-D-mannose]
pKd (FimHtrJ96): 3.52
ΔG° (FimHtrJ96; Table 2, calculated from KD): -4.8 kcal/mol

CCCCO[C@H]1O[C@H](CO)[C@@H](O)[C@H](O)[C@@H]1O [Butyl man, butyl mannoside]
pKd (FimHtrJ96; Table 1, O1 alkyl and aryl mannosides, SPR and displacement binding experiments, read-out: KD): 6.82
ΔG° (FimHtrJ96; Table 1, calculated from KD): -9.3 kcal/mol
pKd (FimHtrJ96; [3H]-mannose binding or displacement assay, FimHtrJ96, read-out: KD): 6.82
binding strength relative to D-mannose (times stronger) (FimHtrJ96; butyl mannoside vs D-mannose, displacement assay): around 15 times

CCO[C@H]1O[C@H](CO)[C@@H](O)[C@H](O)[C@@H]1O [Ethyl man, ethyl mannoside]
pKd (FimHtrJ96): 5.92
ΔG° (FimHtrJ96; Table 1, calculated from KD): -8.1 kcal/mol

CCCCCCCO[C@H]1O[C@H](CO)[C@@H](O)[C@H](O)[C@@H]1O [Heptyl man, heptyl α-D-mannopyranoside]
pKd (FimHtrJ96): 8.30
ranking of binders (FimHtrJ96; SPR and displacement binding experiments, Table 1 series): best binder
ΔG° (FimHtrJ96; Table 1, calculated from KD): -11.3 kcal/mol

CCCCCCO[C@H]1O[C@H](CO)[C@@H](O)[C@H](O)[C@@H]1O [Hexyl man, hexyl mannoside]
pKd (FimHtrJ96): 8.00
ΔG° (FimHtrJ96; Table 1, calculated from KD): -10.9 kcal/mol

CO[C@H]1O[C@H](CO)[C@@H](O)[C@H](O)[C@@H]1O [Methyl man, Methyl mannoside]
pKd (FimHtrJ96): 5.66
ΔG° (FimHtrJ96; Table 1, calculated from KD): -7.7 kcal/mol

CCCCCCCCO[C@H]1O[C@H](CO)[C@@H](O)[C@H](O)[C@@H]1O [Octyl man, octyl mannoside]
pKd (FimHtrJ96): 7.66
ΔG° (FimHtrJ96; Table 1, calculated from KD): -10.4 kcal/mol

CCCCCO[C@H]1O[C@H](CO)[C@@H](O)[C@H](O)[C@@H]1O [Pentyl man, pentyl mannoside]
pKd (FimHtrJ96): 7.60
ΔG° (FimHtrJ96; Table 1, calculated from KD): -10.4 kcal/mol

CCCO[C@H]1O[C@H](CO)[C@@H](O)[C@H](O)[C@@H]1O [Propyl man, propyl mannoside]
pKd (FimHtrJ96): 6.52
ΔG° (FimHtrJ96; Table 1, calculated from KD): -8.9 kcal/mol

Cc1cc(=O)oc2cc(O[C@H]3O[C@H](CO)[C@@H](O)[C@H](O)[C@@H]3O)ccc12 [Umbelliferyl man, 4-Methylumbelliferyl α-mannoside]
ΔG° (FimHtrJ96; Table 1, calculated from KD): -10.8 kcal/mol
pKd (FimHtrJ96; [1]): 7.92
pKd (FimHtrJ96; [2]): 7.70

O=C(CO)[C@@H](O)[C@H](O)[C@H](O)CO [fructose]
pKd (FimHtrJ96): 4.51
ΔG° (FimHtrJ96; Table 2, calculated from KD): -6.1 kcal/mol
affinity relative to mannose (times lower) (FimHtrJ96; fructose vs mannose, FimH): 15 times

O=C[C@H](O)[C@@H](O)[C@@H](O)[C@H](O)CO [galactose]
pKd (FimHtrJ96): 1.00
ΔG° (FimHtrJ96; Table 2, calculated from KD): -1.4 kcal/mol

OC[C@H]1O[C@H](O[C@@H]2[C@@H](O[C@@H]3C(O)O[C@H](CO)[C@@H](O)[C@@H]3O)O[C@H](CO)[C@@H](O)[C@@H]2O)[C@@H](O)[C@@H](O)[C@@H]1O (stereo partly shown) [man-(1,2)-man-(1,2)-man]
pKd (FimHtrCl#4): 5.40
ΔG° CI#4 (FimHtrCl#4): -7.7 kcal/mol
pKd (FimHtrF18): 5.49
ΔG° F18 (FimHtrF18): -7.8 kcal/mol
pKd (FimHtrJ96; [3]): 5.80
ΔG° J96 (FimHtrJ96): -8.2 kcal/mol

OC[C@H]1O[C@H](O[C@@H]2[C@@H](O[C@H]3[C@H](O)[C@@H](CO)OC(O)[C@H]3O)O[C@H](CO)[C@@H](O)[C@@H]2O)[C@@H](O)[C@@H](O)[C@@H]1O (stereo partly shown) [man-(1,2)-man-(1,3)-man]
pKd (FimHtrCl#4): 5.44
ΔG° CI#4 (FimHtrCl#4): -7.7 kcal/mol
pKd (FimHtrF18): 5.52
ΔG° F18 (FimHtrF18): -7.8 kcal/mol
pKd (FimHtrJ96; [3]): 5.74
ΔG° J96 (FimHtrJ96): -8.1 kcal/mol

OC[C@H]1O[C@H](O[C@@H]2[C@@H](OC[C@H]3OC(O)[C@@H](O)[C@@H](O)[C@@H]3O)O[C@H](CO)[C@@H](O)[C@@H]2O)[C@@H](O)[C@@H](O)[C@@H]1O (stereo partly shown) [man-(1,2)-man-(1,6)-man]
pKd (FimHtrCl#4): 5.66
ΔG° CI#4 (FimHtrCl#4): -8.0 kcal/mol
pKd (FimHtrF18): 5.74
ΔG° F18 (FimHtrF18): -8.1 kcal/mol
pKd (FimHtrJ96; [3]): 6.08
ΔG° J96 (FimHtrJ96): -8.6 kcal/mol

O=[N+]([O-])c1ccc(OC2O[C@H](CO)[C@@H](O)[C@H](O)[C@@H]2O)cc1 (stereo partly drawn) [p-Nitrophenyl man, p-Nitrophenyl α-mannoside]
ΔG° (FimHtrJ96; Table 1, calculated from KD): -10.3 kcal/mol
pKd (FimHtrJ96; [1]): 7.59
pKd (FimHtrJ96; [2]): 7.36

OC[C@H]1O[C@@](CO)(O[C@H]2O[C@H](CO)[C@@H](O)[C@H](O)[C@H]2O)[C@@H](O)[C@@H]1O [sucrose]
pKd (FimHtrJ96): 1.89
ΔG° (FimHtrJ96; Table 2, calculated from KD): -2.6 kcal/mol
